Where two headings read alike, the source gives them in different places.

In data set [1] the test system is SFTS virus (KADGH; NCCP43261). Briefly: microbe, parasite or virus in culture. Format: cell-based, severe fever with thrombocytopenia syndrome virus. Further details: SI (Selectivity Index, CC50/IC50): unit not given here. Conditions: for SI (Selectivity Index, CC50/IC50): SFTS virus; for IC50: Severe fever with thrombocytopenia syndrome virus, Vero, 24 h, read-out: SFTSV inhibition (IC50, μM).

Data set [2] is described as follows: in vitro. The conditions noted are these: African green monkey.
Data set [3] is described as follows: in vitro. Conditions: African green monkey. The source holds these as a separate data set.
The subject of the next data set is SARS-COV-2. Briefly: microbe, parasite or virus in culture. Format: cell-based. Further details: SI (Selectivity Index, CC50/IC50): unit not given here. The conditions noted are these: for SI (Selectivity Index, CC50/IC50): SARS-COV-2, values >50 assumed to be 50; for IC50: read-out: SARS-COV-2 inhibition (IC50).
The test system of data set [4] is Balb/c mouse asthma model. Briefly: Balb/c mouse asthma model (ovalbumin), BALF IgE, IL-4, IL-5 and inflammatory cells. Format: in vivo, Balb/c mice. How it is done:
In detail, five-week-old Balb/c mice were purchased and acclimated for one week, after which the mice were sensitized systemically by intraperitoneal injection with 0.1% ovalbumin (OVA 1 mg/mL, Al(OH)3 20 mg/mL) at 100 μl/mouse on days 0 and 14 from a week after the acclimation. From a week (day 21) after a final systemic sensitization, the compound of Example 73 was orally administered everyday at 10 mg/kg to mice for ten days, and dexamethasone was intraperitoneally administered at 1 mg/kg as a positive control group. In one hour later, 0.2% ovalbumin solution was sprayed with a nebulizer (PARIBoy SX, GmbH, Germany) so as to be inhaled for one hour. In five hours after the final sensitization (day 30), an autopsy was performed, and 1 mL of phosphate buffer solution was flowed through a tracheotomy to collect a bronchoalveolar lavage fluid (BALF). The collected BALF was centrifuged at 3000 rpm for ten minutes, and the supernatant was used to measure bioactive materials (IL-4, IL-5), and pellets were used to measure the number of inflammatory cells. In addition, an IgE concentration in the isolated BALF was measured using IgE enzyme-linked immunosorbent assay (ELISA, Komabiotech), and IL-4 and IL-5 were measured using their respective enzyme-linked immunosorbent assay (ELISA, IL-4: Enzo #ADI-900-043, IL-5: R&D system #M5000).
The results are shown in Table 8 and FIG. 22, and each secretion inhibitory activity was calculated in the same manner as in [Equation 2] of Experimental Example 4.
In addition, the BALF pellets were re-dissolved by adding 0.5 mL of phosphate buffer solution, and then 0.1 mL for each thereof was added to a 96-well plate and centrifuged at 800 rpm for five minutes to attach cells to the bottom (three wells per sample). Then, the cells were stained with Diff Quik staining solution (Sysmex) and the number of cells was measured with […].
The results were shown in FIG. 21, the SPSS program was used for statistical processing, the Levene test was performed for equal-variance test, and the significance test was performed through one-way ANOVA.

The test system of data set [5] is IL-4 secretion in RBL-2H3 cells. Description: Inhibition of IL-4 secretion in RBL-2H3 cell line (A23187 induced, ELISA). Format: cell-based. The conditions noted are these: Rattus norvegicus; RBL-2H3 cells, 1 uM A23187; read-out: IL-4 secretion inhibition IC50. The procedure: The RBL-2H3 cell line was purchased from the American Type Culture Collection (ATCC #CRL-2256). The cells were diluted at a concentration of 1×10^6 cells/ml in RPMI medium containing 15% fetal bovine serum (FBS) and antibiotics (penicillin at 100 U/mL, streptomycin at 100 μg/mL), distributed at 200 μl/well in a 48 well plate, and cultured in a 37° C., 5% CO2 incubator for 24 hours. In 24 hours later, the cells were pre-treated one hour before with a test drug and AS1517499 (STAT6 inhibitor) as a control drug, and treated with 1 uM of A23187 for six hours to induce an immune response, after which a group not containing the drug was used as a control. In order to measure a secretion level of cytokine IL-4, the medium was collected from the well plate and centrifuged at 125×g for five minutes to remove a residue, and 100 μl of the medium was used to measure an amount of IL-4 secreted from the cells by using IL-4 enzyme-linked immunosorbent assay (ELISA, Komabiotech). A degree of inhibition of cell secretion by the drug was calculated using [Equation 1] below.
First of all, 288 kinds of materials were treated at a single concentration of 10 uM so as to select 60 kinds of materials which inhibit secretion of IL-4 by 75% or more (FIG. 19).
After that, a repeated experiment and a two-concentration (10, 3 uM) test were performed using the selected 60 kinds of materials so as to select the final eight kinds, and the IC50 value was calculated and shown in Table 3.
Background: ELISA stands for enzyme-linked immunosorbent assay.

Data set [6] deals with IL-5 secretion in mouse splenocytes. Briefly: Inhibition of IL-5 secretion in mouse splenocytes (Concanavalin A, ELISA). Format: cell-based, Balb/c mice. The conditions noted are these: mouse splenocytes, compound 1 μM. How it is done:
(§1) The isolated splenocytes were diluted at a concentration of 5×10^6 cells/mL in RPMI medium containing 10% fetal bovine serum (FBS) and antibiotics (penicillin at 100 U/mL, streptomycin at 100 μg/mL), distributed at 500 μl/well in a 24 well plate, and cultured in a 37° C., 5% CO2 incubator for 48 hours. When splenocytes were distributed, an immune reaction was induced by treating with 5 μg/mL of Concanavalin A, and at this time, the splenocytes were treated with the materials selected in Experimental Example 3 at a concentration of 1 uM. First, in order to measure Th2 cytokines, the medium was collected from the 24-well plate, and only the supernatant was separated through centrifugation at 800×g for five minutes, after which 100 μl of the supernatant per well was used in an enzyme-linked immunosorbent assay (ELISA, Komabiotech) experiment so as to measure a degree of secretion of Th2 cytokines IL-4 and IL-5. A degree of inhibition against secretion of cytokines by the test material was calculated using [Equation 2] below, and the measurement results are shown in Table 7.

The test system of data set [7] is IL-4 secretion in mouse splenocytes. Description: Inhibition of IL-4 secretion in mouse splenocytes (Concanavalin A, ELISA). Format: cell-based, Balb/c mice. The conditions noted are these: mouse splenocytes, compound 1 μM. The procedure:
as §1

A further data set concerns Zika virus. Description: Inhibitory effect against Zika virus in Vero cells. Format: cell-based.
Another data set concerns dengue virus. Briefly: Inhibitory effect against dengue virus in Vero E6 cells. Format: cell-based. How it is done:
On the next day, a compound having a concentration of 0.0625 micro M was prepared from a compound having a concentration of 3 micro M and treated to Vero E6 cells, and then the cells treated with the compound were immediately infected with dengue virus (0.01 MOI) and cultured at 37° C. for five days.

The mark [8] stands for this setting: Severe acute respiratory syndrome coronavirus 2, Vero cells, 24 hours infection.
Where [9] appears, read: Example 73 10 mg/kg oral, dexamethasone 1 mg/kg intraperitoneal.
Setting [10] is: Mean ± S.D., n = 5, Example 73 10 mg/kg oral, dexamethasone 1 mg/kg intraperitoneal, ten days.
Where [11] appears, read: Concanavalin A 5 μg/mL, 48 hours.

Broadly, the IC50 is the concentration at which inhibition is half-maximal. Take `COc1cc2cc3c(c(-c4ccc(N(C)C5Cc6ccccc6C5)nc4)c2cc1OC)C(=O)OC3` [Example 194, 9-(6-((2,3-dihydro-1H-indan-2-yl)(methyl)amino)pyridin-3-yl)-6,7-dimethoxynaphtho[2,3-c]furan-1(3H)-one]: the “SI (Selectivity Index, CC50/IC50)” value turned out to be 48785 in [1] and 33.63 in the data set with SARS-COV-2. Also, the IC50 came out at 0.965 µM in data set [1] and 1490 nM with SARS-COV-2 (setting [8]). Moreover, the CC50 in “in vitro [2]” was > 50 µM. In the data set “in vitro [3]”, this compound registered a CC50 at 24 h of 47.1 mM.

In the case of `CCCCN(CCCC)c1ncc(-c2c3c(cc4cc(OC)c(OC)cc24)COC3=O)cn1` [Example 73, 9-(2-(dibutylamino)pyrimidin-5-yl)-6,7-dimethoxynaphtho[2,3-c]furan-1(3H)-one], in data set [4] (10 mg/kg oral, ten days), the “number of eosinophils in BALF” value is reported as “significantly reduced”. For the same compound, in data set [4] (setting [9]), the “BALF IL-4 Secretion inhibitory ability %” value is on record as “(51.3%)”, the “BALF IL-5 Secretion inhibitory ability %” value is recorded as “(33.7%)” and the “BALF IgE Secretion inhibitory ability %” value was “(24.3%)”. Besides, in data set [4] (setting [10]), the “BALF IL-4 pg/ml” value was found to be 64.9 ± 35.025 pg/mL, the “BALF IL-5 pg/ml” value turned out to be 20.7 ± 13.46 pg/mL and the “BALF IgE” value is 10.5 ± 3.282 ng/mL. In addition, in [5], the IC50 is 3.19 µM. Further, the CC50 in “in vitro [2]” was > 50 µM. In addition, the inhibition at 1 µM in [6] (Splenocyte, read-out: IL-5 Secretion inhibitory ability (%)) worked out at 20.4%. Also, the IL-5 pg/ml in data set [6] (setting [11]) was determined as 74.1 pg/mL. Besides, the inhibition at 1 µM in [7] (Splenocyte, read-out: IL-4 Secretion inhibitory ability (%)) stood at 74.7%. In data set [7] (setting [11]), the IL-4 pg/ml worked out at 86.3 pg/mL. Further, in the data set with SARS-COV-2, the “SI (Selectivity Index, CC50/IC50)” value was 6.53. Further, in the data set with SARS-COV-2 (setting [8]), the IC50 worked out at 7660 nM.

Regarding `NC(=O)c1ncn([C@@H]2O[C@H](CO)[C@@H](O)[C@H]2O)n1` [Ribavirin], the IC50 in data set [1] was determined as 64.8 µM. This compound registered a CC50 at 24 h in “in vitro [3]” of 1.27 mM.

In general, EC50 refers to the concentration at which the effect is half-maximal. Regarding `COc1cc2cc3c(c(-c4ccc5c(c4)OC(F)(F)O5)c2cc1OC)C(=O)OC3` [Example 221, 9-(2,2-difluorobenzo[d][1,3]dioxol-5-yl)-6,7-dimethoxynaphtho[2,3-c]furan-1(3H)-one], the “SI (Selectivity Index, CC50/IC50)” value in data set [1] is 11472; in the data set with SARS-COV-2, 275.32. The IC50 stood at 0.04 µM in data set [1] and 180 nM in the data set with SARS-COV-2 (setting [8]). The CC50 in the data set “in vitro [2]” is > 50 µM. The “protection from cytopathic effects induced by Zika virus” value with Zika virus is “protects from cytopathic effects”. The EC50 with Zika virus (Zika virus, 120 h, 0.02 MOI, five days, read-out: Zika virus Inhibitory ability (EC50)) came out at 484 nM; in the data set with dengue virus (Dengue virus, Vero C1008, 120 h, 0.01 MOI, five days, read-out: Dengue virus Inhibitory ability (EC50)), 79 nM. Moreover, in the data set on dengue virus, the “protection from cytopathic effects induced by dengue virus” value was “protects from cytopathic effects”. Moreover, in “in vitro [3]”, the CC50 at 24 h came to 0.457 mM.

Take `COc1cc2cc3c(c(-c4ccc(N(C)c5cccc(C#N)c5)nc4)c2cc1OC)C(=O)OC3.Cl` [Example 237, 3-((5-(6,7-dimethoxy-3-oxo-1,3-dihydronaphtho[2,3-c]furan-4-yl)pyridin-2-yl)(methyl)amino)benzonitrile]: the “SI (Selectivity Index, CC50/IC50)” value in data set [1] amounted to 1277; with SARS-COV-2 it was 61.98. In addition, the IC50 in data set [1] turned out to be 0.794 µM; with SARS-COV-2 (Severe acute respiratory syndrome coronavirus 2, Vero, 24 h) it was 810 nM. Also, the CC50 in “in vitro [2]” is > 50 µM. The CC50 at 24 h in the data set “in vitro [3]” was 1.01 mM.

Regarding `CCN(CC)CCCC(C)Nc1ccnc2cc(Cl)ccc12` (centres unmarked) [Chloroquine], in data set [1], the IC50 was 21.8 µM. The compound further gave a CC50 in “in vitro [3]” of 104 µM.

Values taken from patent US20240368104A1, “Novel Dialkoxynaphtho[2,3-C]Furan-1(3H)-One Derivatives and Pharmaceutical Composition For Preventing or Treating Respiratory Disease or SARS-COV-2 Infection Disease, Comprising Same” (priority 2021, published 2024).
